Source: US20210380595A1 (ARAXES PHARMA LLC, priority 2018, published 2021)

Target: T1, KRAS G12C 1-169, his-tagged protein, GDP-loaded (Homo sapiens, UniProt P01116, G12C)
T1 construct: KRAS G12C 1-169, his-tagged protein, GDP-loaded
Test: Biochemical assay: covalent modification of KRAS G12C measured by mass spectrometry (RapidFire/TOF or Q-Exactive)
Format: binding
Conditions: tested at 32 μM
Experimental: Test compounds were prepared as 10 mM stock solutions in DMSO (Fisher cat. #BP-231-100). KRAS G12C 1-169, his-tagged protein, GDP-loaded is diluted to 2 μM or 0.5 μM in buffer (20 mM Hepes, 150 mM NaCl, 1 mM MgCl2). Compounds were tested for activity as follows:
Compounds were diluted to 50× final test concentration in DMSO in 96-well storage plates. Compound stock solutions were vortexed before use and observed cwerefully for any sign of precipitation. Dilutions were as follow: • For 32 μM final compound concentration, compounds were diluted to 1600 μM (3 μL 10 mM compound stock +15.75 μL DMSO and mixed well by pipetting. • For 8 μM final compound concentration, compounds were diluted to 400 μM (2 μL 10 mM compound stock +48 μL DMSO) and mixed well by pipetting. 49 μL of the stock protein solution was added to each well of a 96-well PCR plate (Fisher cat#1423027). 1 μl of the diluted 50× compounds were added to appropriate wells in the PCR plate using 12-channel pipettor. Reactions were mixed carefully and thoroughly by pipetting up/down with a 200 μL multi-channel pipettor. The plate was sealed well with aluminum plate seal, and protein and compound were allowed to react for a desired amount of time. 5 μL of 2% formic acid (Fisher cat#A117) in de-ionized H2O was then added to each well followed by mixing with a pipette to quench the reaction. The plate was then resealed with aluminum seal and stored frozen on dry ice until analyzed as described below.
The above described assays were analyzed by mass spectrometry according to one of the following two procedures:
The MS instrument was set to positive polarity, 2 GHz resolution, and low mass (1700) mode and allowed to equilibrate for 30 minutes. The instrument was then calibrated, switched to acquisition mode and the appropriate method loaded.
After another 30 minute equilibration time, a blank batch (i.e., buffer) was run to ensure equipment is operating properly. The samples were thawed at 37° C. for 10 minutes, briefly centrifuged, and transfered to the bench top. Wells A1 and H12 were spiked with 1 μL 500 μM internal standard peptide, and the plates centrifuged at 2000×g for 5 minutes. The method was then run and masses of each individual well recorded.
The masses (for which integration data is desired) for each well were pasted into the platemap and exported from the analysis. Masses for the internal standards were exported as well. The data at 50 ppm was extracted for the +19 charge state, and identity of well A1 was assigned using the internal standard spike and integrated. Peak data was exported as a TOF list and the above steps were repeated individually, for the +20, +21, +22, +23, +24, and +25 charge states.
The masses and peak intensities of KRAS G12C protein species were measured using a Dionex RSLCnano system (Thermo Scientific) connected to a Q Exactive Plus mass spectrometer (Thermo Scientific).
20 μL of sample was loaded onto a Aeris™ 3.6 μm WIDEPORE C4 200 Å, LC Column 50×2.1 mm column maintained at 40° C. at a flow rate of 600 μL/min with 80% Solvent A (0.1% formic acid in H2O) and 20% Solvent B (0.1% formic acid in acetonitrile). The liquid chromatography conditions were 20% solvent B for 1 minute, 20% to 60% solvent B for 1.5 minutes, 60% to 90% solvent for 0.5 minute, 90% solvent B for 0.2 minute, 90% to 20% solvent B for 0.2 minute, and then equilibrated for 1.6 minute before the following sample injection. The flow rate was maintained at 600 μL/min throughout the sample analysis.
The mass spectrometer was operated in profile mode at a resolution of 17500, 5 microscans, using 50 msec max injection time and an AGC target of 1×10^6, and a full mass range from 800-1850 m/z was recorded. The intact protein mode was applied for optimal ion transfer and maximum sensitivity. The ionization method was electrospray ionization, which used a spray voltage of 4 kV, sheath gas flow set to 50 AU, auxiliary gas flow set to 10 AU and sweep gas flow set to 1 AU. […]

SMILES | Bind %
CC#CC(=O)N1CC2(CCN(c3cccc(-c4c(O)cccc4F)c3C#N)C2)C1 [Compound I-18, 3-(2-(but-2-ynoyl)-2,6-diazaspiro[3.4]octan-6-yl)-2′-fluoro-6′-hydroxy-[1,1′-biphenyl]-2-carbonitrile] | + (+ indicates binding activity greater than 0% and up to 50%)
C=CC(=O)N1CC2(CCN(c3cccc(-c4c(C)ccc5[nH]nc(N)c45)c3C#N)C2)C1 [Compound I-19, 2-(2-acryloyl-2,6-diazaspiro[3.4]octan-6-yl)-6-(3-amino-5-methyl-1H-indazol-4-yl)benzonitrile] | +++ (+++ indicates binding activity greater than 75%)
C=CC(=O)N1CC2(CCN(c3cc(OCc4ccccn4)cc(-c4c(C)ccc5[nH]ncc45)c3C#N)C2)C1 [Compound I-20, 2-(2-acryloyl-2,6-diazaspiro[3.4]octan-6-yl)-6-(5-methyl-1H-indazol-4-yl)-4-(pyridin-2-ylmethoxy) benzonitrile] | +++ (+++ indicates binding activity greater than 75%)
C=CC(=O)N1CC2(CCN(c3cc(OC[C@@H]4CCCN4C)cc(-c4c(C)ccc5[nH]ncc45)c3C#N)C2)C1 [Compound I-21, 2-(2-acryloyl-2,6-diazaspiro[3.4]octan-6-yl)-6-(5-methyl-1H-indazol-4-yl)-4-(((S)-1-methylpyrrolidin-2-yl)methoxy) benzonitrile] | +++ (+++ indicates binding activity greater than 75%)
C=CC(=O)N1CCC2(CCN(c3cccc(-c4c(C)ccc5[nH]ncc45)c3C#N)C2)C1 (centres unmarked) [Compound I-22, 2-(7-acryloyl-2,7-diazaspiro[4.4]nonan-2-yl)-6-(5-methyl-1H-indazol-4-yl)benzonitrile] | + (+ indicates binding activity greater than 0% and up to 50%)
CC#CC(=O)N1CC2(CCN(c3cccc(-c4c(C)ccc5[nH]nc(N)c45)c3C#N)C2)C1 [Compound I-23, 2-(3-amino-5-methyl-1H-indazol-4-yl)-6-(2-(but-2-ynoyl)-2,6-diazaspiro[3.4]octan-6-yl)benzonitrile] | + (+ indicates binding activity greater than 0% and up to 50%)
C=CC(=O)N1CC2(CCN(c3cc(N4CCC(N(C)C)CC4)cc(-c4c(C)ccc5[nH]ncc45)c3C#N)C2)C1 [Compound I-24, 2-(2-acryloyl-2,6-diazaspiro[3.4]octan-6-yl)-4-(4-(dimethylamino)piperidin-1-yl)-6-(5-methyl-1H-indazol-4-yl)benzonitrile] | +++ (+++ indicates binding activity greater than 75%)
C=CC(=O)N1CC2(CCN(c3ccc(C)c(-c4c(C)ccc5[nH]ncc45)c3C#N)C2)C1 [Compound I-25, 6-(2-acryloyl-2,6-diazaspiro[3.4]octan-6-yl)-3-methyl-2-(5-methyl-1H-indazol-4-yl)benzonitrile] | ++ (++ indicates binding activity from 50 to 75%)

Same assay, conditions: tested at a concentration of 8 μM

SMILES | Bind %
C=CC(=O)N1CC2(CCN(c3cc(N4CC(N(C)C)C4)cc(-c4c(C)ccc5[nH]ncc45)c3C#N)C2)C1 [Compound I-26, 2-(2-acryloyl-2,6-diazaspiro[3.4]octan-6-yl)-4-(3-(dimethylamino)azetidin-1-yl)-6-(5-methyl-1H-indazol-4-yl)benzonitrile] | +++ (+++ indicates binding activity greater than 75%)
C=CC(=O)N1CC2(CCN(c3cc(OCCCN(C)C)cc(-c4c(C)ccc5[nH]ncc45)c3C#N)C2)C1 [Compound I-27, 2-(2-acryloyl-2,6-diazaspiro[3.4]octan-6-yl)-4-(3-(dimethylamino)propoxy)-6-(5-methyl-1H-indazol-4-yl)benzonitrile] | ++ (++ indicates binding activity from 50 to 75%)
C=CC(=O)N1CC2(CCN(c3cc(OCc4ccccn4)cc(-c4c(C)ccc5cnn(C)c45)c3C#N)C2)C1 [Compound I-28, 2-(2-acryloyl-2,6-diazaspiro[3.4]octan-6-yl)-6-(1,6-dimethyl-1H-indazol-7-yl)-4-(pyridin-2-ylmethoxy) benzonitrile] | +++ (+++ indicates binding activity greater than 75%)
